US9351960B2 (priority 2012, dated 2016)

Test system: cytopathogenic HCV variant C-13
Test: Antiviral activity in pig embryonic kidney cell (SPEV) cultures infected with HCV
Method: Infectious HCV doses used were equal to 10.0 tissue cytopathogenic doses (TCID50)/20 μL.
The used primary fibroblasts highly sensitive to cytopathogenic action of HCV were obtained after trypsinization of 9-day-old chick embryos (FEC), and the used pig embryonic kidney cell (SPEV) cultures were obtained from the Collection of Cell Cultures of the Institute of Virology RAMS. They were used in the form of a one-day cell monolayer grown in 24-well plastic plates. The SPEV and FEC cell cultures were cultured in medium 199 with 10% fetal calf serum, supplemented with glutamine and antibiotics (100 U/ml).
To study the antiviral activity of the drug, a 50 μL of a solution thereof taken in various dilutions were added to the FEC cultures at the time of infection, 24 hours before and 24 hours after infection of the cells.
The infectious activity of HCV was assessed according to the results of titration of fluid samples in the SPEV cell cultures, wherein the culture fluids were derived from the HCV-infected FEC or SPEV cultures on 2 and 5 days after infection. The results were usually registered 6 or 7 days after infection, when the viral cytopathic effect reached its maximum, using the Reed and Muench formula to determine HCV titers.
Samples of the culture medium were taken on Day 3, Day 4 and Day 5 after infection and titrated in fresh SPEV cell cultures.

O=C(O)CCCC(=O)NCCc1c[nH]cn1 [glutaryl histamine]
HCV titers (lg TCID50 for SPEV cell cultures) in medium samples (SPEV, Day 3, 0.005 μg/mL, treatment 24 hours after infection): 0 lg TCID50
HCV titers (lg TCID50 for SPEV cell cultures) in medium samples (SPEV, Day 3, 0.005 μg/mL, treatment 24 hours before infection): 3.0 lg TCID50
HCV titers (lg TCID50 for SPEV cell cultures) in medium samples (SPEV, Day 3, 0.005 μg/mL, treatment at the time of infection): 3.3 lg TCID50
HCV titers (lg TCID50 for SPEV cell cultures) in medium samples (SPEV, Day 3, 0.05 μg/mL, treatment 24 hours after infection): <1.0 lg TCID50
HCV titers (lg TCID50 for SPEV cell cultures) in medium samples (SPEV, Day 3, 0.05 μg/mL, treatment 24 hours before infection): 3.2 lg TCID50
HCV titers (lg TCID50 for SPEV cell cultures) in medium samples (SPEV, Day 3, 0.05 μg/mL, treatment at the time of infection): 3.3 lg TCID50
HCV titers (lg TCID50 for SPEV cell cultures) in medium samples (SPEV, Day 3, 0.5 μg/mL, treatment 24 hours after infection): 0 lg TCID50
HCV titers (lg TCID50 for SPEV cell cultures) in medium samples (SPEV, Day 3, 0.5 μg/mL, treatment 24 hours before infection): 3.2 lg TCID50
HCV titers (lg TCID50 for SPEV cell cultures) in medium samples (SPEV, Day 3, 0.5 μg/mL, treatment at the time of infection): 3.3 lg TCID50
HCV titers (lg TCID50 for SPEV cell cultures) in medium samples (SPEV, Day 3, 5.0 μg/mL, treatment 24 hours after infection): 0 lg TCID50
HCV titers (lg TCID50 for SPEV cell cultures) in medium samples (SPEV, Day 3, 5.0 μg/mL, treatment 24 hours before infection): 3.5 lg TCID50
HCV titers (lg TCID50 for SPEV cell cultures) in medium samples (SPEV, Day 3, 5.0 μg/mL, treatment at the time of infection): 2.3 lg TCID50
HCV titers (lg TCID50 for SPEV cell cultures) in medium samples (SPEV, Day 3, 50.0 μg/mL, treatment 24 hours after infection): 1.25 lg TCID50
HCV titers (lg TCID50 for SPEV cell cultures) in medium samples (SPEV, Day 3, 50.0 μg/mL, treatment 24 hours before infection): 3.5 lg TCID50
HCV titers (lg TCID50 for SPEV cell cultures) in medium samples (SPEV, Day 3, 50.0 μg/mL, treatment at the time of infection): 3.5 lg TCID50
HCV titers (lg TCID50 for SPEV cell cultures) in medium samples (SPEV, Day 3, 500.0 μg/mL, treatment 24 hours after infection): 0 lg TCID50
HCV titers (lg TCID50 for SPEV cell cultures) in medium samples (SPEV, Day 3, 500.0 μg/mL, treatment 24 hours before infection): 3.5 lg TCID50
HCV titers (lg TCID50 for SPEV cell cultures) in medium samples (SPEV, Day 3, 500.0 μg/mL, treatment at the time of infection): 3.0 lg TCID50
HCV titers (lg TCID50 for SPEV cell cultures) in medium samples (SPEV, Day 4, 0.005 μg/mL, treatment 24 hours after infection): 0 lg TCID50
HCV titers (lg TCID50 for SPEV cell cultures) in medium samples (SPEV, Day 4, 0.005 μg/mL, treatment 24 hours before infection): 3.4 lg TCID50
HCV titers (lg TCID50 for SPEV cell cultures) in medium samples (SPEV, Day 4, 0.005 μg/mL, treatment at the time of infection): 4.1 lg TCID50
HCV titers (lg TCID50 for SPEV cell cultures) in medium samples (SPEV, Day 4, 0.05 μg/mL, treatment 24 hours after infection): 1.3 lg TCID50
HCV titers (lg TCID50 for SPEV cell cultures) in medium samples (SPEV, Day 4, 0.05 μg/mL, treatment 24 hours before infection): 3.0 lg TCID50
HCV titers (lg TCID50 for SPEV cell cultures) in medium samples (SPEV, Day 4, 0.05 μg/mL, treatment at the time of infection): 4.4 lg TCID50
HCV titers (lg TCID50 for SPEV cell cultures) in medium samples (SPEV, Day 4, 0.5 μg/mL, treatment 24 hours after infection): 0 lg TCID50
HCV titers (lg TCID50 for SPEV cell cultures) in medium samples (SPEV, Day 4, 0.5 μg/mL, treatment 24 hours before infection): 3.8 lg TCID50
HCV titers (lg TCID50 for SPEV cell cultures) in medium samples (SPEV, Day 4, 0.5 μg/mL, treatment at the time of infection): 4.1 lg TCID50
HCV titers (lg TCID50 for SPEV cell cultures) in medium samples (SPEV, Day 4, 5.0 μg/mL, treatment 24 hours after infection): 0 lg TCID50
HCV titers (lg TCID50 for SPEV cell cultures) in medium samples (SPEV, Day 4, 5.0 μg/mL, treatment 24 hours before infection): 3.4 lg TCID50
HCV titers (lg TCID50 for SPEV cell cultures) in medium samples (SPEV, Day 4, 5.0 μg/mL, treatment at the time of infection): 5.5 lg TCID50
HCV titers (lg TCID50 for SPEV cell cultures) in medium samples (SPEV, Day 4, 50.0 μg/mL, treatment 24 hours after infection): 2.6 lg TCID50
HCV titers (lg TCID50 for SPEV cell cultures) in medium samples (SPEV, Day 4, 50.0 μg/mL, treatment 24 hours before infection): 3.8 lg TCID50
HCV titers (lg TCID50 for SPEV cell cultures) in medium samples (SPEV, Day 4, 50.0 μg/mL, treatment at the time of infection): 5.0 lg TCID50
HCV titers (lg TCID50 for SPEV cell cultures) in medium samples (SPEV, Day 4, 500.0 μg/mL, treatment 24 hours after infection): 0 lg TCID50
HCV titers (lg TCID50 for SPEV cell cultures) in medium samples (SPEV, Day 4, 500.0 μg/mL, treatment 24 hours before infection): 3.8 lg TCID50
HCV titers (lg TCID50 for SPEV cell cultures) in medium samples (SPEV, Day 4, 500.0 μg/mL, treatment at the time of infection): 4.2 lg TCID50
HCV titers (lg TCID50 for SPEV cell cultures) in medium samples (SPEV, Day 5, 0.005 μg/mL, treatment 24 hours after infection): 0 lg TCID50
HCV titers (lg TCID50 for SPEV cell cultures) in medium samples (SPEV, Day 5, 0.005 μg/mL, treatment 24 hours before infection): 4.5 lg TCID50
HCV titers (lg TCID50 for SPEV cell cultures) in medium samples (SPEV, Day 5, 0.005 μg/mL, treatment at the time of infection): 5.5 lg TCID50
HCV titers (lg TCID50 for SPEV cell cultures) in medium samples (SPEV, Day 5, 0.05 μg/mL, treatment 24 hours after infection): 1.8 lg TCID50
HCV titers (lg TCID50 for SPEV cell cultures) in medium samples (SPEV, Day 5, 0.05 μg/mL, treatment 24 hours before infection): 4.5 lg TCID50
HCV titers (lg TCID50 for SPEV cell cultures) in medium samples (SPEV, Day 5, 0.05 μg/mL, treatment at the time of infection): 5.0 lg TCID50
HCV titers (lg TCID50 for SPEV cell cultures) in medium samples (SPEV, Day 5, 0.5 μg/mL, treatment 24 hours after infection): 0 lg TCID50
HCV titers (lg TCID50 for SPEV cell cultures) in medium samples (SPEV, Day 5, 0.5 μg/mL, treatment 24 hours before infection): 4.5 lg TCID50
HCV titers (lg TCID50 for SPEV cell cultures) in medium samples (SPEV, Day 5, 0.5 μg/mL, treatment at the time of infection): 5.5 lg TCID50
HCV titers (lg TCID50 for SPEV cell cultures) in medium samples (SPEV, Day 5, 5.0 μg/mL, treatment 24 hours after infection): 0 lg TCID50
HCV titers (lg TCID50 for SPEV cell cultures) in medium samples (SPEV, Day 5, 5.0 μg/mL, treatment 24 hours before infection): 4.5 lg TCID50
HCV titers (lg TCID50 for SPEV cell cultures) in medium samples (SPEV, Day 5, 5.0 μg/mL, treatment at the time of infection): 5.5 lg TCID50
HCV titers (lg TCID50 for SPEV cell cultures) in medium samples (SPEV, Day 5, 50.0 μg/mL, treatment 24 hours after infection): 2.8 lg TCID50
HCV titers (lg TCID50 for SPEV cell cultures) in medium samples (SPEV, Day 5, 50.0 μg/mL, treatment 24 hours before infection): 4.5 lg TCID50
HCV titers (lg TCID50 for SPEV cell cultures) in medium samples (SPEV, Day 5, 50.0 μg/mL, treatment at the time of infection): 7.0 lg TCID50
HCV titers (lg TCID50 for SPEV cell cultures) in medium samples (SPEV, Day 5, 500.0 μg/mL, treatment 24 hours after infection): 0 lg TCID50
HCV titers (lg TCID50 for SPEV cell cultures) in medium samples (SPEV, Day 5, 500.0 μg/mL, treatment 24 hours before infection): 6.0 lg TCID50
HCV titers (lg TCID50 for SPEV cell cultures) in medium samples (SPEV, Day 5, 500.0 μg/mL, treatment at the time of infection): 5.5 lg TCID50
suppression of HCV infectious activity (SPEV, Day 5 after infection and simultaneous treatment of the cells): 2.2-2.7 lg TCID50/20 μg
suppression of the production of HCV compared with the control (SPEV, medium collected on Day 5 after infection): 2.2 lg TCID50/20 μg
HCV replication in SPEV cell cultures (added to the cultures 24 hours after infection): significantly suppresses
